Tests used:
CHO K1 cell line [1] = assay: Dye uptake flow cytometry MDR assay; assay type: cell-based, hamster; conditions: for D-values, Cyclosporin A / D-values, Novobiocin / D-values, Probenecid / D-values, Verapamil / MAF, Cyclosporin A / MAF, Novobiocin / MAF, Probenecid / MAF, Verapamil: Fluo-8 AM probe, dye uptake;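 as to all read-outs here: flow cytometry of dye-loaded cells, Kolmogorov-Smirnov D value (0 to 1.0) comparing fluorescence with versus without inhibitor, made negative when the uninhibited control was brighter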
Description: (§7) Concentrations of the modulators used in the experiments were non-toxic to the cells (based upon standard 3-(4,5-Dimethylthiazol-2-Yl)-2,5-Diphenyltetrazolium Bromide (MTT) testing, data not shown). Fluo-8™ was used in all experiments at 5 μM, and Rhod-4™—at 4 μM final concentrations.
(§8) Cells were grown on tissue culture dishes and on the day of assay were trypsinized and washed twice with warm (37° C.) phosphate-buffered saline (PBS). Post-wash, the cells were re-suspended in warm phenol red indicator-free medium at a density of 1×10^6/ml. For each detection set, sixteen tubes (5 samples in triplicates plus non-stained control for background fluorescence) in numbered tubes each containing 5×10^5/cells (0.5 ml) were prepared. […] After incubation for 5 min at 37° C., 0.25 ml of warm medium with Fluo-8™ AM probe (5 μM final concentration) or Rhod-4™ AM probe (2 μM final concentration) was added to each tube excluding non-stained control that receives plain medium and cells were incubated for 30 min at 37° C. and analyzed immediately by flow cytometry. In the second set of the tubes, the reaction was stopped by rapid centrifugation (1 min) at relatively low speed (200×g). After wash with ice-cold PBS and discarding the supernatant, cells were re-suspended in 0.5 ml of ice-cold medium and kept on ice until flow cytometry analysis. The third set of cells simply was spun down (1 min, 200×g) to remove the excess of the probe, resuspended in ice-cold medium and kept on ice until flow cytometry analysis.
(§9) Fluo-8™ dye fluorescence was measured in the FL1 channel, and Rhod-4™ dye fluorescence—in the FL2 channel.

A549 cell line [2] = assay: Dye uptake flow cytometry MDR assay; assay type: cell-based, human; conditions: A549, dye uptake
Description: as §7, §8, §9

HeLa cell line [3] = assay: Dye uptake flow cytometry MDR assay; assay type: cell-based, human; conditions: HeLa, dye uptake
Description: as §7, §8, §9

CHO K1 cell line [4] = assay: Dye efflux flow cytometry MDR assay; assay type: cell-based, hamster; parameters: key to D-value, Verapamil / D-value, Novobiocin: KS D value, 0 to 1; negative if control brighter than sample; conditions: for D-value, +4° C.: kept on ice without inhibitor; as to D-value, Novobiocin: test concentration or dose not given here; as to D-value, Probenecid: test concentration or dose not given here
Description: (§1) Kolmogorov-Smirnov statistics measures the difference between two distribution functions and generates a D value ranging between 0 and 1.0, with higher values indicating a greater difference between the distribution functions. The D value generated by the KS statistics was modified by ascribing a negative value if the fluorescence of a negative control (no inhibitor) was brighter than the fluorescence of the sample with inhibitor. The method was one of those recommended by the First International MDR1 Methods Detection Workshop (St. Jude Children's Research Hospital, Memphis, Tenn.).
(§2) Cells were grown in tissue culture dishes and on the day of assay they were trypsinized and washed twice with ice-cold PBS. Post-wash, the cells were re-suspended in cold phenol red indicator-free medium at a density of 1×10^6/ml. For each detection set, eighteen tubes (6 tubes without inhibitor and 3 tubes for each inhibitor tested, in triplicates) each containing 2.5-5×10^5/cells were prepared. Cells were centrifuged at 200×g for 5 min, and after discarding supernatant, re-suspended at 1×10^6/ml in ice-cold indicator-free medium containing Fluo-8™ AM or Rhod-4™ AM probes. Additionally, an aliquot of non-stained cells was prepared for background fluorescence measurements. Cells were incubated with the probe(s) on ice for 60 min, than centrifuged at 200×g for 5 min. After discarding the supernatant, cells were either washed twice with PBS or simply were spun down to remove the excess of the probe and resuspended at 5×10^5 cells/sample in 0.5 ml of following solutions:
(§3) 1. warm (37° C.) indicator-free medium containing vehicle only (3 tubes)
(§4) 2. warm (37° C.) indicator-free medium containing inhibitor (3 tubes for each inhibitor tested)
(§5) 3. ice-cold indicator-free medium (3 tubes)
(§6) Tube sets 1 and 2 were immediately transferred to a water bath (37° C.) and incubated for 90 min. Tube set 3 was kept on ice. Post incubation, 4 ml of ice-cold indicator-free medium was added per tube, tubes were centrifuged at 200×g for 5 min, supernatant was discarded, and cell pellet was re-suspended in the cold indicator-free medium and centrifuged again. Finally, cells were re-suspended in 0.5 ml of cold indicator-free medium and maintained on ice until analysis. Alternatively, cells were analyzed without washing. Flow cytometry experiments were performed as described in Example 3.

A549 cell line [5] = assay: Dye efflux flow cytometry MDR assay; assay type: cell-based, human; parameters: key to D-value, Verapamil / D-value, Novobiocin: KS D value, 0 to 1; negative if control brighter than sample; conditions: for D-value, +4° C.: kept on ice without inhibitor; as to D-value, Novobiocin: test concentration or dose not given here; as to D-value, Verapamil: test concentration or dose not given here
Description: as §1, §2, §3, §4, §5, §6

HeLa cell line [6] = assay: Dye efflux flow cytometry MDR assay; assay type: cell-based, human; parameters: key to D-value, Verapamil / D-value, Novobiocin: KS D value, 0 to 1; negative if control brighter than sample; conditions: for D-value, +4° C.: kept on ice without inhibitor; as to D-value, Novobiocin: test concentration or dose not given here; as to D-value, Probenecid: test concentration or dose not given here
Description: as §1, §2, §3, §4, §5, §6

[7] = CHO K1, dual probes Fluo-8 AM (FL1) + Pheophorbide A (FL3)
[8] = CHO K1, dye uptake, average of three independent experiments (Table 10)
[9] = CHO K1, dye uptake, average of three representative experiments (Table 6)
[10] = CHO K1, dye uptake, representative experiment (Table 8)
[11] = average of three independent experiments (Table 10)
[12] = average of three representative experiments (Table 6)
[13] = representative experiment (Table 8)
[14] = CHO K1, dye efflux, representative experiment (Table 9)
[15] = Fluo-8 AM probe, dye efflux, CHO K1, No Wash
[16] = Fluo-8 AM probe, dye efflux, CHO K1, Wash
[17] = A549, dye efflux, representative experiment (Table 9)
[18] = Fluo-8 AM probe, dye efflux, A549, No Wash
[19] = Fluo-8 AM probe, dye efflux, A549, Wash
[20] = representative experiment (Table 9)

CC(=O)OCOC(=O)CN(CC(=O)OCOC(C)=O)c1ccccc1OCCOc1cc(-c2c3ccc(=O)cc-3oc3cc(OCOC(C)=O)ccc23)ccc1N(CC(=O)OCOC(C)=O)CC(=O)OCOC(C)=O [Fluo-8 ™ AM]
D-values Post Inhibitor Treatment (compared to uninhibited cells), CsA (CHO K1 cell line [1]; [7]): 0.94 | D-values Post Inhibitor Treatment (compared to uninhibited cells), FTC (CHO K1 cell line [1]; [7]): 0.56 | D-values Post Inhibitor Treatment (compared to uninhibited cells), MK-571 (CHO K1 cell line [1]; [7]): 0.98 | D-values Post Inhibitor Treatment (compared to uninhibited cells), Verapamil (CHO K1 cell line [1]; [7]): 0.9 | D-value, Cyclosporine A (CHO K1 cell line [1]; [8]): 0.89 | D-value, FTC (CHO K1 cell line [1]; [8]): 0.28 | D-value, MK-571 (CHO K1 cell line [1]; [8]): 0.95 | D-value, Novobiocin (CHO K1 cell line [1]; [8]): 0.68 | D-value, Verapamil (CHO K1 cell line [1]; [8]): 0.74 | D-value, Fumitremorgan C (CHO K1 cell line [1]; [9]): 0.48 | D-value, Probenecid (CHO K1 cell line [1]; [9]): 0.69 | D-value, Verapamil (CHO K1 cell line [1]; [9]): 0.84 | D-value, Cyclosporine A (CHO K1 cell line [1]; [10]): 0.96 | D-value, Novobiocin (CHO K1 cell line [1]; [10]): 0.78 | D-value, Probenecid (CHO K1 cell line [1]; [10]): 0.89 | D-value, Verapamil (CHO K1 cell line [1]; [10]): 0.83 | D-values, Cyclosporin A (CHO K1 cell line [1]; No Wash): 0.97 | D-values, Novobiocin (CHO K1 cell line [1]; No Wash): 0.98 | D-values, Probenecid (CHO K1 cell line [1]; No Wash): 0.9 | D-values, Verapamil (CHO K1 cell line [1]; No Wash): 0.81 | MAF, Cyclosporin A (CHO K1 cell line [1]; No Wash): 93.0 | MAF, Novobiocin (CHO K1 cell line [1]; No Wash): 93.5 | MAF, Probenecid (CHO K1 cell line [1]; No Wash): 85.4 | MAF, Verapamil (CHO K1 cell line [1]; No Wash): 77.6 | D-values, Cyclosporin A (CHO K1 cell line [1]; Spin): 0.94 | D-values, Novobiocin (CHO K1 cell line [1]; Spin): 0.97 | D-values, Probenecid (CHO K1 cell line [1]; Spin): 0.9 | D-values, Verapamil (CHO K1 cell line [1]; Spin): 0.76 | MAF, Cyclosporin A (CHO K1 cell line [1]; Spin): 91.5 | MAF, Novobiocin (CHO K1 cell line [1]; Spin): 92.4 | MAF, Probenecid (CHO K1 cell line [1]; Spin): 85.0 | MAF, Verapamil (CHO K1 cell line [1]; Spin): 73.0 | D-values, Cyclosporin A (CHO K1 cell line [1]; Wash): 0.94 | D-values, Novobiocin (CHO K1 cell line [1]; Wash): 0.94 | D-values, Probenecid (CHO K1 cell line [1]; Wash): 0.87 | D-values, Verapamil (CHO K1 cell line [1]; Wash): 0.76 | MAF, Cyclosporin A (CHO K1 cell line [1]; Wash): 91.6 | MAF, Novobiocin (CHO K1 cell line [1]; Wash): 91.3 | MAF, Probenecid (CHO K1 cell line [1]; Wash): 86.2 | MAF, Verapamil (CHO K1 cell line [1]; Wash): 73.5 | D-value, Cyclosporine A (A549 cell line [2]; [11]): 0.43 | D-value, FTC (A549 cell line [2]; [11]): 0.31 | D-value, MK-571 (A549 cell line [2]; [11]): 0.61 | D-value, Novobiocin (A549 cell line [2]; [11]): 0.37 | D-value, Verapamil (A549 cell line [2]; [11]): 0.06 | D-value, Fumitremorgan C (A549 cell line [2]; [12]): 0.23 | D-value, Probenecid (A549 cell line [2]; [12]): 0.26 | D-value, Verapamil (A549 cell line [2]; [12]): 0.07 | D-value, Cyclosporine A (A549 cell line [2]; [13]): 0.51 | D-value, Novobiocin (A549 cell line [2]; [13]): 0.44 | D-value, Probenecid (A549 cell line [2]; [13]): 0.49 | D-value, Verapamil (A549 cell line [2]; [13]): 0.09 | D-value, Fumitremorgan C (HeLa cell line [3]; [12]): 0.15 | D-value, Probenecid (HeLa cell line [3]; [12]): 0 | D-value, Verapamil (HeLa cell line [3]; [12]): 0.10 | D-value, Cyclosporine A (HeLa cell line [3]; [13]): 0.14 | D-value, Novobiocin (HeLa cell line [3]; [13]): 0.09 | D-value, Probenecid (HeLa cell line [3]; [13]): 0.15 | D-value, Verapamil (HeLa cell line [3]; [13]): 0.04 | D-value, 4° C. (CHO K1 cell line [4]; CHO K1, dye efflux, kept on ice without inhibitor (Table 9)): 0.72 | D-value, Cyclosporine A (CHO K1 cell line [4]; [14]): 0.55 | D-value, Novobiocin (CHO K1 cell line [4]; [14]): 0.70 | D-value, Probenecid (CHO K1 cell line [4]; [14]): 0.30 | D-value, Verapamil (CHO K1 cell line [4]; [14]): 0.28 | D-value, Cyclosporin A (CHO K1 cell line [4]; [15]): 0.8 | D-value, Novobiocin (CHO K1 cell line [4]; [15]): 0.7 | D-value, Probenecid (CHO K1 cell line [4]; [15]): 0.19 | D-value, Verapamil (CHO K1 cell line [4]; [15]): 0.21 | D-value, +4° C. (CHO K1 cell line [4]; [15]): 0.78 | D-value, Cyclosporin A (CHO K1 cell line [4]; [16]): 0.62 | D-value, Novobiocin (CHO K1 cell line [4]; [16]): 0.79 | D-value, Probenecid (CHO K1 cell line [4]; [16]): 0.23 | D-value, Verapamil (CHO K1 cell line [4]; [16]): 0.34 | D-value, +4° C. (CHO K1 cell line [4]; [16]): 0.76 | D-value, 4° C. (A549 cell line [5]; A549, dye efflux, kept on ice without inhibitor (Table 9)): 0.80 | D-value, Cyclosporine A (A549 cell line [5]; [17]): 0.5 | D-value, Novobiocin (A549 cell line [5]; [17]): 0.57 | D-value, Probenecid (A549 cell line [5]; [17]): 0.33 | D-value, Verapamil (A549 cell line [5]; [17]): 0.02 | D-value, Cyclosporin A (A549 cell line [5]; [18]): 0.83 | D-value, Novobiocin (A549 cell line [5]; [18]): 0.57 | D-value, Probenecid (A549 cell line [5]; [18]): 0.33 | D-value, Verapamil (A549 cell line [5]; [18]): 0.12 | D-value, +4° C. (A549 cell line [5]; [18]): 0.77 | D-value, Cyclosporin A (A549 cell line [5]; [19]): 0.71 | D-value, Novobiocin (A549 cell line [5]; [19]): 0.46 | D-value, Probenecid (A549 cell line [5]; [19]): 0.18 | D-value, Verapamil (A549 cell line [5]; [19]): 0.11 | D-value, +4° C. (A549 cell line [5]; [19]): 0.75 | D-value, Cyclosporin A (HeLa cell line [6]; Fluo-8 AM probe, No Wash): 0.12 | D-value, Novobiocin (HeLa cell line [6]; Fluo-8 AM probe, No Wash): 0.13 | D-value, Probenecid (HeLa cell line [6]; Fluo-8 AM probe, No Wash): 0.13 | D-value, Verapamil (HeLa cell line [6]; Fluo-8 AM probe, No Wash): 0.076 | D-value, +4° C. (HeLa cell line [6]; Fluo-8 AM probe, No Wash): 0.15 | D-value, Cyclosporin A (HeLa cell line [6]; Fluo-8 AM probe, Wash): 0.14 | D-value, Novobiocin (HeLa cell line [6]; Fluo-8 AM probe, Wash): 0.16 | D-value, Probenecid (HeLa cell line [6]; Fluo-8 AM probe, Wash): 0.14 | D-value, Verapamil (HeLa cell line [6]; Fluo-8 AM probe, Wash): 0.14 | D-value, +4° C. (HeLa cell line [6]; Fluo-8 AM probe, Wash): 0.14 | D-value, 4° C. (HeLa cell line [6]; kept on ice without inhibitor (Table 9)): 0.83 | D-value, Cyclosporine A (HeLa cell line [6]; [20]): 0.13 | D-value, Novobiocin (HeLa cell line [6]; [20]): 0.15 | D-value, Probenecid (HeLa cell line [6]; [20]): 0.16 | D-value, Verapamil (HeLa cell line [6]; [20]): 0.15

Source: US9097673B2, “Processes and kits for determining multi-drug resistance of cells” (ENZO LIFE SCIENCES, INC., priority 2010, dated 2015)
